Consider 28 compounds from US9585380B2, “SSAT mRNA translation repression and activation” (TEMPLE UNIVERSITY—Of The Commonwealth System of Higher …, priority 2011, dated 2017).

Each structure is given as a SMILES string. Structures can show the parent of a compound that is named as a salt.

For the first test, the system named is SSAT translation. Kind of test: Drug screening with mutant 6 SSAT-luciferase reporter construct in transfected HEK 293T cells. The test is classed as cell-based, human. To be noted: Homo sapiens, 12 h; procedure of Example 6 (10 μM, mutant 6 construct, HEK 293T), increase over basal SSAT translation. As for the experimental part:
The mutant 6 chimeric construct of Example 4 (A424C; A426C; FIG. 18G) cloned into pLEX MCS plasmid was utilized in drug screening as follows. HEK 293T cells (ATCC) were grown in DMEM supplemented with 10% fetal bovine serum and antibiotics. The HEK 293T cells were transfected with the mutant 6/pLEX MCS plasmid using HTS-Jetpei transfection reagent (Polyplus Transfection, Illkirch, France). Transfected HEK293T cells were incubated overnight at 37° C. After 24 hours, cells transfected cells in 96-well plates used for screening were treated with 10 μM of test compound from a compound library in DMSO. Untreated cells were used as the negative control, and cells treated with 10 μM DENSPM comprised a positive control. The luciferase signaling in each plate was independently analyzed using a Glomax Luminometer (Promega Corp.) by comparing the signals against the controls twelve hours after treatment.
The procedure of Example 6 was followed, screening for compounds that increase SSAT translation. The agents listed in Table 11 were identified as increasing SSAT translation by at least 35% over basal SSAT translation.
`CN(C)CCOC(C)(c1ccccc1)c1ccccn1` (stereo not shown) [Doxylamine succinate] yielded an activation at 10 µM of 62%. The same measure, in the same setting: the result for `CCc1ccc(CCOc2ccc(CC3SC(=O)NC3=O)cc2)nc1` (stereo not shown) [Pioglitazone] reads 50%.

Take `NCCNCCNCCNCCN` [Tetraethylenepentamine pentahydrochloride]: the activation at 10 µM amounted to 60%. Still for that read-out and setting: the figure for `c1ccc2[nH]c(-c3cscn3)nc2c1` [Tiabendazole] is 39%. Same read-out and setting: the result for `COc1ccc2cc(CCC(C)=O)ccc2c1` [Nabumetone] reads 59%; that for `Nc1nc(NC2CC2)c2ncn([C@H]3C=C[C@@H](CO)C3)c2n1` [Abacavir Sulfate], 36%. Still for that read-out and setting: the result for `N=C(N)c1ccc(OCCCCCOc2ccc(C(=N)N)cc2)cc1` [Pentamidine isethionate] reads 36%; that for `Nc1[nH]c(=O)ncc1F` [Flucytosine], 35%. As to `Nc1ccc(/N=N/c2ccccc2)c(N)n1` [Phenazopyridine hydrochloride], the activation at 10 µM turned out to be 41%. With `CC(=O)OCC(=O)[C@@]12N=C(C)O[C@@H]1C[C@H]1[C@@H]3CCC4=CC(=O)C=C[C@]4(C)[C@H]3[C@@H](O)C[C@@]12C` [Deflazacort], the activation at 10 µM is 37%. On the same count and under the same terms, the figure for `C[C@]12CC[C@H]3C(=CCc4cc(O)ccc43)[C@@H]1CCC2=O` [Equilin] is 36%.

The same test, now with this note: Homo sapiens; 10 μM test compound, HEK 293T cells transfected with mutant 6 construct, luciferase signal twelve hours after treatment.
Take `CC=C(C)C(=O)O[C@H]1[C@H](OC(C)=O)[C@@]2(CO)C(CC1(C)C)C1=CCC3[C@@]4(C)CC[C@H](O[C@@H]5O[C@H](C(=O)O)[C@@H](O[C@@H]6O[C@H](CO)[C@@H](O)[C@H](O)[C@H]6O)[C@H](O)[C@H]5O[C@@H]5O[C@H](CO)[C@@H](O)[C@H](O)[C@H]5O)[C@](C)(CO)C4CC[C@@]3(C)[C@]1(C)C[C@H]2O` (stereo partly drawn) [Beta-Escin, (3α,5β,14β,16α,21α,22α)-22-acetoxy-16,23,28-trihydroxy-1-{[(2Z)-2-methylbut-2-enoyl]oxy}olean-12-en-3-yl-α-D-gulopyranosyl-(1→2)-[a-L-mannopyranosyl-(1→4)]-β-D-allopyranosiduronic acid]: the inhibition at 10 µM turned out to be 88.7%. The same measure, in the same setting: the result for `O=C1CCc2ccc(OCCCCN3CCN(c4cccc(Cl)c4Cl)CC3)cc2N1` [Aripiprazole, 7-{4-[4-(2,3-dichlorophenyl)piperazin-1-yl]butoxy}-3,4-dihydroquinolin-2(1H)-one] reads 92.7%; that for `CC(=O)O[C@H]1C[C@H](OC2[C@@H](O)C[C@H](O[C@H]3[C@@H](O)C[C@H](O[C@H]4CC[C@@]5(C)[C@H](CC[C@@H]6[C@@H]5C[C@@H](O)[C@]5(C)[C@@H](C7=CC(=O)OC7)CC[C@]65O)C4)O[C@@H]3C)O[C@@H]2C)O[C@H](C)[C@H]1O[C@@H]1O[C@H](CO)[C@@H](O)[C@H](O)[C@H]1O` (stereo partly drawn) [Lanatoside C, (3β,5β,12β)-3-{[β-D-glucopyranosyl-(1→4)-3-O-acetyl-2,6-dideoxy-β-D-ribo-hexopyranosyl-(1→4)-2,6-dideoxy-β-D-ribo-hexopyranosyl-(1→4)-2,6-dideoxy-β-D-ribo-hexopyranosyl]oxy}-12,14-dihydroxycard-20(22)-enolide], 91.8%; that for `O=C1C=CC(=O)c2c1ccc1c2ccc2ccccc21` [Chrysene-1,4-quinone, chrysene-1,4-dione], 97.3%. Take `Cc1cc(/C=C/c2ccc3cc(N(C)C)ccc3[n+]2C)c(C)n1-c1ccccc1` [Pyrvinium pamoate, 2-[(E)-2-(2,5-dimethyl-1-phenylpyrrol-3-yl)ethenyl]-N,N,1-trimethylquinolin-1-ium-6-amine]: 10 µM produced 92.5% inhibition. Still for that read-out and setting: the result for `C=C1C(=O)O[C@H]2[C@H]1CC/C(C)=C/CC[C@@]1(C)O[C@@H]21` [Parthenolide, (1aR,7aS,10aS,10bS)-1a,5-dimethyl-8-methylene-2,3,6,7,7a,8,10a,10b-octahydrooxireno[9,10]cyclodeca [1,2-b]furan-9(1aH)-one] reads 99.2%.

The compound `C[C@]12CC[C@H](O)C[C@H]1CC[C@@H]1[C@@H]2CC[C@]2(C)[C@@H](C3=CC(=O)OC3)CC[C@]12O` [Digitoxigenin, 3-β,14-dihydroxy-5-β,14-β-card-20(22)-enolide] came in with an inhibition at 10 µM of 93.4%. In the case of `CC(C)(C)c1ccc(C(O)CCCN2CCC(C(O)(c3ccccc3)c3ccccc3)CC2)cc1` (racemic) [Terfenadine, (RS)-1-(4-tert-butylphenyl)-4-{4-[hydroxy(diphenyl)methyl]piperidin-1-yl}-butan-1-ol], testing at 10 µM gave an inhibition of 100%. As to `Fc1ccc(C(OCCN2CCN(CCCc3ccccc3)CC2)c2ccc(F)cc2)cc1` [Vanoxerine dihydrochloride, 1-[2-[bis(4-fluorophenyl)methoxy]ethyl]-4-(3-phenylpropyl)piperazine•(HCl)2], the inhibition at 10 µM is 96.9%. For the compound `C[C@@H]1O[C@@H](O[C@@H]2C=C3CC[C@@H]4[C@H](CC[C@]5(C)[C@@H](c6ccc(=O)oc6)CC[C@]45O)[C@@]3(C)CC2)[C@H](O)[C@H](O)[C@H]1O` [Proscillaridin A, (3β)-3-[(6-deoxy-α-L-mannopyranosyl)oxy]-14-hydroxybufa-4,20,22-trienolide], the inhibition at 10 µM turned out to be 94%. Still for that read-out and setting: the result for `COc1ccc(CCN2CCC(Nc3nc4ccccc4n3Cc3ccc(F)cc3)CC2)cc1` [Astemizole, 1-[(4-fluorophenyl)methyl]-N-[1-[2-(4-methoxyphenyl)ethyl]-4-piperidyl]benzoimidazol-2-amine] reads 86.2%; that for `CN(C)CCOc1ccc(/C(=C(/CCCl)c2ccccc2)c2ccccc2)cc1` [Toremifene, 2-{4-[(1Z)-4-chloro-1,2-diphenyl-but-1-en-1-yl]phenoxy}-N,N-dimethylethanamine], 86.3%; that for `O=C1NCN(c2ccccc2)C12CCN(CCCC(c1ccc(F)cc1)c1ccc(F)cc1)CC2` [Fluspirilen, 8-[4,4-Bis(4-fluorphenyl)butyl]-1-phenyl-1,3,8-triazaspiro[4,5] decan-4-on], 94.7%.

`C[C@H]1OC(OC2[C@@H](O)C[C@H](OC3[C@@H](O)CC(O[C@H]4CC[C@@]5(C)[C@H](CC[C@@H]6[C@@H]5C[C@@H](O)[C@]5(C)[C@@H](C7=CC(=O)OC7)CC[C@]65O)C4)O[C@@H]3C)O[C@@H]2C)C[C@H](O)C1O` (stereo in doubt) [Digoxin, 4-[(3S,5R,8R,9S,10S,12R,13S,14S)-3-[(2S,4S,5R,6R)-5-[(2S,4S,5R,6R)-5-[(2S,4S,5R,6R)-4,5-dihydroxy-6-methyl-oxan-2-yl]oxy-4-hydroxy-6-methyl-oxan-2-yl]oxy-4-hydroxy-6-methyl-oxan-2-yl]oxy-12,14-dihydroxy-10,13-dimethyl-1,2,3,4,5,6,7,8,9,11,12,15,16,17-tetradecahydrocyclopenta[a]phenanthren-17-yl]-5H-furan-2-one]: 10 µM produced 93.9% inhibition.

In the case of `O=C1NCCN1CCN1CCC(c2cn(-c3ccc(F)cc3)c3ccc(Cl)cc23)CC1` [Sertindole, 1-[2-[4-[5-chloro-1-(4-fluorophenyl)-indol-3-yl]-1-piperidyl]ethyl]-imidazolidin-2-one], the inhibition at 10 µM worked out at 99.8%.

The same test, now with this note: procedure of Example 6 (10 μM, mutant 6 construct, HEK 293T), increase over basal SSAT translation.
As for `Cc1c(O)c(=O)n(-c2ccccc2)n1C` [Antipyrine, 4-hydroxy], the “% Increase in SSAT Translation” value is recorded as 41%. Still for that read-out and setting: the figure for `CCCCNc1ccc(C(=O)OCCN(C)C)cc1.Cl` [Tetracaïne hydrochloride] is 40%.
